Test results as given in ChEMBL document CHEMBL1821711, “Design and synthesis of novel arylpiperazine derivatives containing the imidazole core targeting 5-HT(2A) receptor and 5-HT transporter” (J Med Chem, 2011).
pIC50: −log10 of the molar value.

Tests used:
Cytochrome P450 3A4 = Cytochrome P450 3A4 (Homo sapiens, UniProt P08684)
Description: Inhibition of human recombinant CYP3A4 by luceferin-based assay

in vitro = conditions: mouse, ht-22
Description: Cytotoxicity against mouse HT22 cells after 48 hrs by MTT assay

Cytochrome P450 2D6 = Cytochrome P450 2D6 (Homo sapiens, UniProt P10635)
Description: Inhibition of human recombinant CYP2D6 by luceferin-based assay

Cytochrome P450 2C9 = Cytochrome P450 2C9 (Homo sapiens, UniProt P11712)
Chain of Cytochrome P450 2C9 (P11712 whole entry): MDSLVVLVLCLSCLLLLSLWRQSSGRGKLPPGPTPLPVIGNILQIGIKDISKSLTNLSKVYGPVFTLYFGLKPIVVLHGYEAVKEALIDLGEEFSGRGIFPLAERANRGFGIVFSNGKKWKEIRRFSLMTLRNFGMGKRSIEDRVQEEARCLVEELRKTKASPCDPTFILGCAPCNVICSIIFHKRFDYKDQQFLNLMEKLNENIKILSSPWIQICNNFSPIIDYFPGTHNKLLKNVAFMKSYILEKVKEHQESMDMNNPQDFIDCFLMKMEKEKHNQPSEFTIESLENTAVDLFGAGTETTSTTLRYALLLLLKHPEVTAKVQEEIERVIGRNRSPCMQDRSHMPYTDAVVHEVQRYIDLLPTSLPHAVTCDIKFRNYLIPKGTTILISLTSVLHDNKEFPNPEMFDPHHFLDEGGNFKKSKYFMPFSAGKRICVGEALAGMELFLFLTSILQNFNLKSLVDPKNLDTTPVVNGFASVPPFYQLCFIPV
Description: Inhibition of human recombinant CYP2C9 by luceferin-based assay

Cytochrome P450 1A2 = target: T1, Cytochrome P450 1A2 (Homo sapiens, UniProt P05177)
T1 sequence (P05177 whole entry): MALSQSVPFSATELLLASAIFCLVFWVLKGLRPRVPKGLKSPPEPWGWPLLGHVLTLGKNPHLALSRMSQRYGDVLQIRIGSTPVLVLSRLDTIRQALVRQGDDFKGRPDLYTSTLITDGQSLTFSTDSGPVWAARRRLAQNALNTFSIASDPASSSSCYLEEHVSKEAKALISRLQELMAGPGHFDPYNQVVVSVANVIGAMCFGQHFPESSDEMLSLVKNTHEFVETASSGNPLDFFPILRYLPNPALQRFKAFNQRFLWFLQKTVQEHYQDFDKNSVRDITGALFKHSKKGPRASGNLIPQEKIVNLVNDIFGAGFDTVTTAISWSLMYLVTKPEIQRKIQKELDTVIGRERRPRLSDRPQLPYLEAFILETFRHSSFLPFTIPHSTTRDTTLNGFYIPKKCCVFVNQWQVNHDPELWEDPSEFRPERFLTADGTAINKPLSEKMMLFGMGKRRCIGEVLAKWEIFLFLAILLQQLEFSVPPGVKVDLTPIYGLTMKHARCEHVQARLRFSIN
Description: Inhibition of human recombinant CYP1A2 by luceferin-based assay

[1] = target: T2, 5-hydroxytryptamine receptor 2C (Homo sapiens, UniProt P28335); test: biochemical; format: cell-based, CHO-K1
T2 sequence (P28335 whole entry): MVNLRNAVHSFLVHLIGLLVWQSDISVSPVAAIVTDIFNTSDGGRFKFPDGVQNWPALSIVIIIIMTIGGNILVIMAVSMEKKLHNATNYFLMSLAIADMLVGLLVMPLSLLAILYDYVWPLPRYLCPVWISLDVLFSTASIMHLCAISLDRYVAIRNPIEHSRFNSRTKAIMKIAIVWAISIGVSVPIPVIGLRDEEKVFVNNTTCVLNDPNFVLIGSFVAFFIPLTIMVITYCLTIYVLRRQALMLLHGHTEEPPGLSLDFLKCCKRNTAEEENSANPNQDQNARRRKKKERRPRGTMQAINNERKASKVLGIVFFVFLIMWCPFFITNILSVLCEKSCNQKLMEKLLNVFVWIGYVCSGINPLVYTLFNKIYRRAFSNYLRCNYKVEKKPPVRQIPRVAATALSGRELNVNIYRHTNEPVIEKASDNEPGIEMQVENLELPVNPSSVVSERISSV
Description: Displacement of [3H]mesulergine from human recombinant 5-HT2C receptor expressed in CHO-K1 cells

[2] = target: Voltage-gated inwardly rectifying potassium channel KCNH2 (Homo sapiens, UniProt Q12809)
Chain of Voltage-gated inwardly rectifying potassium channel KCNH2 (Q12809 whole entry): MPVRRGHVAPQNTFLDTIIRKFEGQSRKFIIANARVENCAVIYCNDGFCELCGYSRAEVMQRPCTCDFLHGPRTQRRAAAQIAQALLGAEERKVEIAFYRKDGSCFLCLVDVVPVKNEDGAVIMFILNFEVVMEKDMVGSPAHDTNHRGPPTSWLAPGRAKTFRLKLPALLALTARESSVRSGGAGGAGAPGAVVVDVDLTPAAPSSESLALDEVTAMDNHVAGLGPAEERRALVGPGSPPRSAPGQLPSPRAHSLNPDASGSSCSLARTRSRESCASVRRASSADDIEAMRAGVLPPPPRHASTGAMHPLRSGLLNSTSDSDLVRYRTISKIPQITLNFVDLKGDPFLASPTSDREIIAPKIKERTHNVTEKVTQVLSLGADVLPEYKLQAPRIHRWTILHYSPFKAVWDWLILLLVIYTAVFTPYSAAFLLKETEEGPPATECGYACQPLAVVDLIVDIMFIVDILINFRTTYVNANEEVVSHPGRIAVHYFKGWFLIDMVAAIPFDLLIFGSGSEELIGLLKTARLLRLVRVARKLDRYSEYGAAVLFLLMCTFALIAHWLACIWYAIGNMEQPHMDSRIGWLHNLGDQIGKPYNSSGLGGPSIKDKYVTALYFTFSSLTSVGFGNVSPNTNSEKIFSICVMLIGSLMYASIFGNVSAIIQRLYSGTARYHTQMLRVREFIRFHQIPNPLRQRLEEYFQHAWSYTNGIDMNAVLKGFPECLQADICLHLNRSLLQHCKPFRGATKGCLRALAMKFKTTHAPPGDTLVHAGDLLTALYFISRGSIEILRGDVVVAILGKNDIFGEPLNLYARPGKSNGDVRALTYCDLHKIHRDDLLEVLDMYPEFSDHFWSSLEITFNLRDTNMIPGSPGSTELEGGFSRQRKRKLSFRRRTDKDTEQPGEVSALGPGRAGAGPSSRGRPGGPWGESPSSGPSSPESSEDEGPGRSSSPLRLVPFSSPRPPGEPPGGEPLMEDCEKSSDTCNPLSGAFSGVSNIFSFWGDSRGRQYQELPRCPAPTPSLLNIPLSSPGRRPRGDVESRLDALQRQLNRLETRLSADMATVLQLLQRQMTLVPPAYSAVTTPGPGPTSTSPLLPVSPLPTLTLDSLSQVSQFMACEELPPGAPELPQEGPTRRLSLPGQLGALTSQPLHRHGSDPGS
Description: Displacement of [3H]astemizole from human ERG expressed in HEK293 cells

D(4) dopamine receptor = target: T3, D(4) dopamine receptor (Homo sapiens, UniProt P21917)
T3 sequence (P21917 whole entry): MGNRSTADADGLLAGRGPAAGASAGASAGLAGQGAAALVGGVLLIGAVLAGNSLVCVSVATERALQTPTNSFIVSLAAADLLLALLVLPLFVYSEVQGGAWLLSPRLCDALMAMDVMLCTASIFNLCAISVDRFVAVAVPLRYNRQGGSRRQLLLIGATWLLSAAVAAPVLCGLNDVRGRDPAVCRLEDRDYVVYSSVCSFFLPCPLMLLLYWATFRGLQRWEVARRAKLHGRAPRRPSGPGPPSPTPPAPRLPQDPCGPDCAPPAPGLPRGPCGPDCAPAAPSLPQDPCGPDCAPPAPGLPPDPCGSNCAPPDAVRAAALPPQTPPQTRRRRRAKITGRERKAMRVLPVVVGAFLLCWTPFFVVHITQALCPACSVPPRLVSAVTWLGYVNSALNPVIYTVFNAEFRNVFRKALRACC
Description: inhibition of dopamine D4 receptor by competition binding assay

[3] = target: T4, 5-hydroxytryptamine receptor 1A (Homo sapiens, UniProt P08908)
T4 sequence (P08908 whole entry): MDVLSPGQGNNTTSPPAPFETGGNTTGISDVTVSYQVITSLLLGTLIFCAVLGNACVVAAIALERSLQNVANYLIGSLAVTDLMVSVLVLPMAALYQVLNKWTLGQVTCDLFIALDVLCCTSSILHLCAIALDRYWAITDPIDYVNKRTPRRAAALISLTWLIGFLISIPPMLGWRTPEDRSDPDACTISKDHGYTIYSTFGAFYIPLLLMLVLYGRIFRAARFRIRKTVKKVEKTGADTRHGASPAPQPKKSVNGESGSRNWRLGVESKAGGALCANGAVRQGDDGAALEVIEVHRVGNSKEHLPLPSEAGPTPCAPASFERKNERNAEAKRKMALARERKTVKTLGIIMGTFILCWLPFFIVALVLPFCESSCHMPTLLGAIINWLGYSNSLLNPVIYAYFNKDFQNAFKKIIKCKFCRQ
Description: Inhibition of 5HT1A receptor by competition binding assay

[4] = target: 5-hydroxytryptamine receptor 6 (Homo sapiens, UniProt P50406)
Chain of 5-hydroxytryptamine receptor 6 (P50406 whole entry): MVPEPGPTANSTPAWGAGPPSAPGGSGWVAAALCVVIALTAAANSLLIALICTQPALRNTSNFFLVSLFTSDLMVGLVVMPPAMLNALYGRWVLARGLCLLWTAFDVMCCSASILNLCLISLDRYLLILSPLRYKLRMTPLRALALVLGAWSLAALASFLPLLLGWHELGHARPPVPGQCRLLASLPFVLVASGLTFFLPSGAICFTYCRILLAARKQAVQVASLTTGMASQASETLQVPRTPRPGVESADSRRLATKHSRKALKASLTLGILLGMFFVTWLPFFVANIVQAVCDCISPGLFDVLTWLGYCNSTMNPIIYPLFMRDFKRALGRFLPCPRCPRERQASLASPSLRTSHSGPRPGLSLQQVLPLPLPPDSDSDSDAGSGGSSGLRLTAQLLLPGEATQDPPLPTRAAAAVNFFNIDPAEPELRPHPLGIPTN
Description: Inhibition of 5HT6 receptor by competition binding assay

[5] = target: 5-hydroxytryptamine receptor 7 (Homo sapiens, UniProt P34969)
Chain of 5-hydroxytryptamine receptor 7 (P34969 whole entry): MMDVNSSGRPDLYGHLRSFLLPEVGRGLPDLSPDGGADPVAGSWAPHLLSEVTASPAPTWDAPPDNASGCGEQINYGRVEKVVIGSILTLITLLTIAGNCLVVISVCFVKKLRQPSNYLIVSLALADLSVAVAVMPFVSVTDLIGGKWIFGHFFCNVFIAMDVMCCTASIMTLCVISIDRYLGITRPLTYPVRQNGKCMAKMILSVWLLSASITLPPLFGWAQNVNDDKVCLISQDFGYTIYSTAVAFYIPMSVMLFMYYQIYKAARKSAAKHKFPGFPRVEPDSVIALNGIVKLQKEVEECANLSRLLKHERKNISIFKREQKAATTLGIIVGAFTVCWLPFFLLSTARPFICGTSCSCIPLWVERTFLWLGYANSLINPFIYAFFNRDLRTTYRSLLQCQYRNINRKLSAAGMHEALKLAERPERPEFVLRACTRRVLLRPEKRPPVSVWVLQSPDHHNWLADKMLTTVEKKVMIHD
Description: Inhibition of 5HT7 receptor by competition binding assay

D(3) dopamine receptor = D(3) dopamine receptor (Homo sapiens, UniProt P35462)
Chain of D(3) dopamine receptor (P35462 whole entry): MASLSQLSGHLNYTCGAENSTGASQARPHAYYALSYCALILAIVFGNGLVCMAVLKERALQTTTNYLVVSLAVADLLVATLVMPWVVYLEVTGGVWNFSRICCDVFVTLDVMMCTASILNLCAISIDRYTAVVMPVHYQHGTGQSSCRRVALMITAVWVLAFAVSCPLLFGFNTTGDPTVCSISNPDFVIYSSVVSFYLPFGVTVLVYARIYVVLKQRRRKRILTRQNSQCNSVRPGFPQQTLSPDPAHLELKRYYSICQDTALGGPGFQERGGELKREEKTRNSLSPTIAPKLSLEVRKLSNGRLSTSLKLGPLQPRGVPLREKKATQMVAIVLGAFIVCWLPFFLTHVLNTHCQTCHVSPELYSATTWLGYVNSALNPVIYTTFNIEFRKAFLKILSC
Description: Inhibition of dopamine D3 receptor by competition binding assay

D(2) dopamine receptor = D(2) dopamine receptor (Homo sapiens, UniProt P14416)
Chain of D(2) dopamine receptor (P14416 whole entry): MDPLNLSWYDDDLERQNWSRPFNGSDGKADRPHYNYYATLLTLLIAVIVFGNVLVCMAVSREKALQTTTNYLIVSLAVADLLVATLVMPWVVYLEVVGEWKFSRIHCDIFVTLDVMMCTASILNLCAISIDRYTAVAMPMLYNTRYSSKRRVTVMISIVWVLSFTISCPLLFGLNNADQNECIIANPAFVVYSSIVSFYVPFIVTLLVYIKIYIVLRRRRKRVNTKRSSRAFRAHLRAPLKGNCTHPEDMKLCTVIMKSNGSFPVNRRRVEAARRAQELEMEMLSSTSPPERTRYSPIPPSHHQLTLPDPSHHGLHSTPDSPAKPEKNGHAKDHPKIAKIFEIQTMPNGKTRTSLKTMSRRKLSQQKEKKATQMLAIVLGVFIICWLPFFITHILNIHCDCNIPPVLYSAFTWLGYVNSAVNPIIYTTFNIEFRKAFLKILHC
Description: Inhibition of dopamine D2 receptor by competition binding assay

Chain of Cytochrome P450 3A4 (P08684 whole entry): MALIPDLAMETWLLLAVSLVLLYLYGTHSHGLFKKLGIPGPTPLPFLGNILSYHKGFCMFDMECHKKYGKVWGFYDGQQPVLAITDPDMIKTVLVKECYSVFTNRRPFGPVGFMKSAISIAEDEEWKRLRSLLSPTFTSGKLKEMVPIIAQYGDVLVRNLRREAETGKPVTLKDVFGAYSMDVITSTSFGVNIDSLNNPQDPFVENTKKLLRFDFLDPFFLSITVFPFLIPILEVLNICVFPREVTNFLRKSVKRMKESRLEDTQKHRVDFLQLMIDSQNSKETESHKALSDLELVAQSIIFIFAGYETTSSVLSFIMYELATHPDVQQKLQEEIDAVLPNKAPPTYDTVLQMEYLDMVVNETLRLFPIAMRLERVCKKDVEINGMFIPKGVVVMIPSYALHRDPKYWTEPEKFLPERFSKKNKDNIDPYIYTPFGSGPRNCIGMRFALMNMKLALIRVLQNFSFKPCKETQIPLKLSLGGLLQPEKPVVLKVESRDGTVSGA
Chain of Cytochrome P450 2D6 (P10635 whole entry): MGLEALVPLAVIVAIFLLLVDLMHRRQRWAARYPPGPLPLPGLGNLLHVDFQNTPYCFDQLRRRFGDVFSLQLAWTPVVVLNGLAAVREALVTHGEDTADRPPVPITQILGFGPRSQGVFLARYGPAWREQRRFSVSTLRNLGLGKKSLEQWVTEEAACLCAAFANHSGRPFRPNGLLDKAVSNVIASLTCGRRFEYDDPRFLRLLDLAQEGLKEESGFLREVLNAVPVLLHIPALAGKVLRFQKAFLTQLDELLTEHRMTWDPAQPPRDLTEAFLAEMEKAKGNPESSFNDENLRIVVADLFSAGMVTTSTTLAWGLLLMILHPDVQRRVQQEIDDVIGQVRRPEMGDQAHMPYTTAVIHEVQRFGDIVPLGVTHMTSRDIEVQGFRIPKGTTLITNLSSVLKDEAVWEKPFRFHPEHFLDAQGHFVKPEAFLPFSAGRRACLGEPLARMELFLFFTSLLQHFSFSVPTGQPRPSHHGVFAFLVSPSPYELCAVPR

Row | Compound | pIC50 (Cytochrome P450 3A4) | CC50 at 48 h (in vitro) [µM] | pIC50 (Cytochrome P450 2D6) | pIC50 (Cytochrome P450 2C9) | pIC50 (Cytochrome P450 1A2) | pIC50 [1] | pIC50 [2] | pIC50 (D(4) dopamine receptor) | pIC50 [3] | pIC50 [4] | pIC50 [5] | pIC50 (D(3) dopamine receptor) | pIC50 (D(2) dopamine receptor)
1 | Cc1cccc(N2CCN(CCCNC(=O)c3nc(C)n(-c4ccc5c(c4)OCCO5)c3C)CC2)c1C | < 4.70 | 19.3 | 4.75 | 5.36 | < 4.70 | 5.40 | 5.06 |  |  |  |  |  | 
2 | Cc1nc(C(=O)NCCN2CCN(c3cccc(Cl)c3Cl)CC2)c(C)n1-c1ccccc1 |  |  |  |  |  |  | < 5.00 | 5.40 | 8.41 | 5.77 | 8.17 | 5.66 | 6.04
